From patent publication US20120245180A1, “COMBINATION” (GlaxoSmithKline LLC, priority 2009, published 2012)
Where two headings read alike, the source gives them in different places.

Key:
SNU449 = experiment: Cell growth inhibition assay, hepatocellular carcinoma cell line (Cell Titer Glo); format: cell-based, human; details: 3 days
Description: (§1) Human tumor cell lines from hepatocellular carcinoma (HCC), C3A, Hep3B, HepG2, PLC/PRF/5, SNU182, SNU387, SNU398, SNU423, SNU449 and SNU475 were purchased from the ATCC. Human breast tumor cell lines, HCC2218, HCC1419, BT-474, SK-BR-3, UACC893, JIMT-1, MDA-MB-361, HCC202, MDA-MB-175-VII, HCC1569, HCC1937, HCC38, MDA-MB-157, HCC1954, HCC1500, BT483, KPL-1, SUM225 and ZR-75-1 from ATCC, SUM52 and SUM190 from Asterand, PLC (Detroit Mich.), were cultured in RPMI 1640 medium containing 10% FBS; SKBR3-W13 and BT-474-J4 cultured in RPMI 1640 medium containing 10% FBS and 1 μM lapatinib; KPL4 line was kindly provided by Dr Junichi Kurebayashi (Kawasaki Medical School, Okayama, Japan) and cultured in DMEM containing 5% FBS. JIMT-1 from European Collection of Cell Cultures (UK), is a line derived from a patient clinically resistant to trastuzumab (Herceptin®). SK-BR-3-W13 is a single cell clone isolated by a cloning cylinder after a single treatment of SK-BR-3 cells with 0.5 μM lapatinib. BT-474-J4 is a single cell clone derived from a pool of BT-474 cells that were selected to grow in lapatinib to a concentration of 3 μM.
Cells were seeded in a 96-well tissue culture plate (NUNC 136102) of RPMI medium containing 10% FBS at 500-2,000 cells per well. […] ATP levels were determined by adding Cell Titer Glo® (Promega) according to the manufacturer's protocol. Briefly, Cell Titer Glo® was added to each plate, incubated for 20 minutes then luminescent signal was read on the SpectraMax L plate reader with a 0.5 sec integration time. […]
(§2) Inhibition of cell growth was estimated after treatment with compound or combination of compounds for three days and comparing the signal to cells treated with vehicle (DMSO). Cell growth was calculated relative to vehicle (DMSO) treated control wells. […]
(§3) Combination effects on potency were evaluated using the Combination Index (CI) and Excess Over Highest Single Agent (EHOSA) methods.

BT474 = experiment: Cell growth inhibition assay, breast tumor cell line (Cell Titer Glo); format: cell-based; details: Homo sapiens, BT-474, 72 h, BT474 (HER2+), 3 days
Description: as §1
(§4) Cells were seeded in a 96-well tissue culture plate (NUNC 136102) of RPMI medium containing 10% FBS at 500-2,000 cells per well. Approximately 24 hours after plating, cells were exposed to ten, two-fold or three-fold serial dilutions of either Compound A or B or the combination of the two agents at a 2:1 molar ratio (Compounds A and B respectively). In some cases, cells were grown in RPMI media containing 10% FBS and in the presence or absence of 2 ng/mL hepatocyte growth factor (HGF). Cells were incubated in the presence of compounds for 3 days. ATP levels were determined by adding Cell Titer Glo® (Promega) according to the manufacturer's protocol. Briefly, Cell Titer Glo® was added to each plate, incubated for 20 minutes then luminescent signal was read on the SpectraMax L plate reader with a 0.5 sec integration time. All assays were run at least in duplicate.
as §2, with “wells. Concentration of compound that inhibits 50% of control cell growth (IC50) was back-interpolated when y=50% of DMSO treated control wells using nonlinear regression with the equation:” for “wells.”
(§5) where A is the minimum response (ymin), B is the maximum response (Ymax), C is the inflection point of the curve (EC50) and D is the Hill coefficient.
as §3
(§6) DNA Copy number data on the HER2 gene was collected for all breast cancer cell lines using the Affymetrix 500K chip (Affymetrix Inc, Sunnyvale, Calif.). Briefly DNA was extracted from each line, digested with the restriction enzyme Nsp or Sty, ligated to an adaptor and amplified by PCR. After PCR, DNA was fragmented, labeled, denatured, and hybridized to the Affymetrix 500K chip. Upon completion of hybridization, each assay was washed and stained. Image data were acquired. Similarly collected data from a panel 10 diploid non-tumorigenic lymphoblastic cell lines were used to calculate DNA copy number. All ‘SNP Chip’ images ('CEL files'), were extracted, read and normalized using the dChip software package (Lin et al. 2004. Bioinformatics. 20:1233-40). SNP-wise ‘copy-number ratios’ (log2 scale) were calculated for all cancer cell lines using the lymphoblastic reference panel and analyzed by circular binary segmentation to reduce noise (Olshen et al. 2004. Biostatistics. 5:557-72). Cell lines with log2 ratios of HER2>0.65 were considered HER2+.

HCC1500 = experiment: as above; format: cell-based; details: Homo sapiens, 72 h, HCC1500 (HER2−), 3 days
Description: as §1, §4
as §2, with “wells. Concentration of compound that inhibits 50% of control cell growth (IC50) was back-interpolated when y=50% of DMSO treated control wells using nonlinear regression with the equation:” for “wells.”
as §5, §3, §6

HCC1954 = experiment: as above; format: cell-based; details: Homo sapiens, 72 h, HCC1954 (HER2+), 3 days
Description: as §1, §4
as §2, with “wells. Concentration of compound that inhibits 50% of control cell growth (IC50) was back-interpolated when y=50% of DMSO treated control wells using nonlinear regression with the equation:” for “wells.”
as §5, §3, §6

HCC202 = experiment: as above; format: cell-based; details: Homo sapiens, 72 h, HCC202 (HER2+), 3 days
Description: as §1, §4
as §2, with “wells. Concentration of compound that inhibits 50% of control cell growth (IC50) was back-interpolated when y=50% of DMSO treated control wells using nonlinear regression with the equation:” for “wells.”
as §5, §3, §6

HCC2218 = experiment: as above; format: cell-based; details: Homo sapiens, 72 h, HCC2218 (HER2+), 3 days
Description: as §1, §4
as §2, with “wells. Concentration of compound that inhibits 50% of control cell growth (IC50) was back-interpolated when y=50% of DMSO treated control wells using nonlinear regression with the equation:” for “wells.”
as §5, §3, §6

JIMT-1 = experiment: as above; format: cell-based; details: Homo sapiens, 72 h, JIMT-1 (HER2+), 3 days
Description: as §1, §4
as §2, with “wells. Concentration of compound that inhibits 50% of control cell growth (IC50) was back-interpolated when y=50% of DMSO treated control wells using nonlinear regression with the equation:” for “wells.”
as §5, §3, §6

KPL1 = experiment: as above; format: cell-based; details: Homo sapiens, KPL-1, 72 h, KPL1 (HER2−), 3 days
Description: as §1, §4
as §2, with “wells. Concentration of compound that inhibits 50% of control cell growth (IC50) was back-interpolated when y=50% of DMSO treated control wells using nonlinear regression with the equation:” for “wells.”
as §5, §3, §6

MDA-MB-157 = experiment: as above; format: cell-based; details: Homo sapiens, 72 h, MDA-MB-157 (HER2−), 3 days
Description: as §1, §4
as §2, with “wells. Concentration of compound that inhibits 50% of control cell growth (IC50) was back-interpolated when y=50% of DMSO treated control wells using nonlinear regression with the equation:” for “wells.”
as §5, §3, §6

MDA-MB-175-VII = experiment: as above; format: cell-based; details: Homo sapiens, 72 h, MDA-MB-175-VII (HER2−), 3 days
Description: as §1, §4
as §2, with “wells. Concentration of compound that inhibits 50% of control cell growth (IC50) was back-interpolated when y=50% of DMSO treated control wells using nonlinear regression with the equation:” for “wells.”
as §5, §3, §6

MDA-MB-361 = experiment: as above; format: cell-based; details: Homo sapiens, 72 h, MDA-MB-361 (HER2+), 3 days
Description: as §1, §4
as §2, with “wells. Concentration of compound that inhibits 50% of control cell growth (IC50) was back-interpolated when y=50% of DMSO treated control wells using nonlinear regression with the equation:” for “wells.”
as §5, §3, §6

UACC893 = experiment: as above; format: cell-based; details: Homo sapiens, UACC-893, 72 h, UACC893 (HER2+), 3 days
Description: as §1, §4
as §2, with “wells. Concentration of compound that inhibits 50% of control cell growth (IC50) was back-interpolated when y=50% of DMSO treated control wells using nonlinear regression with the equation:” for “wells.”
as §5, §3, §6

ZR-75-1 = experiment: as above; format: cell-based; details: Homo sapiens, 72 h, ZR-75-1 (HER2−), 3 days
Description: as §1, §4
as §2, with “wells. Concentration of compound that inhibits 50% of control cell growth (IC50) was back-interpolated when y=50% of DMSO treated control wells using nonlinear regression with the equation:” for “wells.”
as §5, §3, §6

[1] = read-out: Single agent IC50, Compound B
[2] = read-out: Single agent IC50, Compound A

COc1ncc(-c2ccc3nccc(-c4ccnnc4)c3c2)cc1NS(=O)(=O)c1ccc(F)cc1F [Compound B, 2,4-difluoro-N-{2-(methyloxy)-5-[4-(4-pyridazinyl)-6-quinolinyl]-3-pyridinyl}benzenesulfonamide]
IC50 (SNU449; Homo sapiens, SNU-449, 72 h, SNU449, HGF −, read-out: Single agent IC50, Compound B): 24 ± 5 nM | IC50 (BT474; [1]): 30 ± 7 nM | IC50 (HCC1500; [1]): 61 ± 36 nM | IC50 (HCC1954; [1]): 11 ± 3 nM | IC50 (HCC202; [1]): 45 ± 4 nM | IC50 (HCC2218; [1]): 18 ± 13 nM | IC50 (JIMT-1; [1]): 28 ± 5 nM | IC50 (KPL1; [1]): 8 ± 4 nM | IC50 (MDA-MB-157; [1]): > 1000 nM | IC50 (MDA-MB-175-VII; [1]): 7 ± 1 nM | IC50 (MDA-MB-361; [1]): 9 ± 2 nM | IC50 (UACC893; [1]): 3 ± 3 nM | IC50 (ZR-75-1; [1]): 6 ± 1 nM

CC(=O)Nc1cccc(-n2c(=O)n(C3CC3)c(=O)c3c(Nc4ccc(I)cc4F)n(C)c(=O)c(C)c32)c1 [Compound A, N-{3-[3-cyclopropyl-5-[(2-fluoro-4-iodophenyl)amino]-6,8-dimethyl-2,4,7-trioxo-3,4,6,7-tetrahydropyrido[4,3-d]pyrimidin-1(2H)-yl]phenyl}acetamide]
IC50 (SNU449; Homo sapiens, SNU-449, 72 h, SNU449, HGF −, read-out: Single agent IC50, Compound A): > 5000 nM | IC50 (SNU449; SNU449, HGF + (2 ng/ml), read-out: Single agent IC50, Compound A): > 5000 nM | IC50 (BT474; [2]): > 1000 nM | IC50 (HCC1500; [2]): > 1000 nM | IC50 (HCC1954; [2]): 1020 ± 839 nM | IC50 (HCC202; [2]): > 1000 nM | IC50 (HCC2218; [2]): > 1000 nM | IC50 (JIMT-1; [2]): > 1000 nM | IC50 (KPL1; [2]): > 1000 nM | IC50 (MDA-MB-157; [2]): > 1000 nM | IC50 (MDA-MB-175-VII; [2]): 99 ± 97 nM | IC50 (MDA-MB-361; [2]): > 1000 nM | IC50 (UACC893; [2]): > 1000 nM | IC50 (ZR-75-1; [2]): > 1000 nM
